# Reference: PubChem BioAssay (NCI)
#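 48-hour exposure; five concentrations; linearly interpolated endpoints. The concentration for full growth arrest is given as TGI.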 Where a SMILES comes first, the peptide text is derived from it.
# How the values were obtained:
# Assay in all cases: NCI tumour cell line growth inhibition, 48 h
# SN12C renal = test system: SN12C renal
# UO-31 renal = test system: UO-31 renal
# NCI-H226 lung = test system: NCI-H226 lung
# RXF 393 renal = test system: RXF 393 renal
# IGROV1 ovarian = test system: IGROV1 ovarian
# HS 578T breast = test system: HS 578T breast
# HCC-2998 colon = test system: HCC-2998 colon
# NCI-H460 lung = test system: NCI-H460 lung
# UACC-62 melanoma = test system: UACC-62 melanoma
# MOLT-4 leukemia = test system: MOLT-4 leukemia
# U251 CNS = test system: U251 CNS
# CCRF-CEM leukemia = test system: CCRF-CEM leukemia
# SR leukemia = test system: SR leukemia
# SF-539 CNS = test system: SF-539 CNS
# MDA-N = test system: MDA-N
# SNB-75 CNS = test system: SNB-75 CNS
# HL-60(TB) leukemia = test system: HL-60(TB) leukemia
# SK-MEL-5 melanoma = test system: SK-MEL-5 melanoma
# DU-145 prostate = test system: DU-145 prostate
SMILES,TGI (SN12C renal) [µM],TGI (UO-31 renal) [µM],TGI (NCI-H226 lung) [µM],TGI (RXF 393 renal) [µM],TGI (IGROV1 ovarian) [µM],TGI (HS 578T breast) [µM],TGI (HCC-2998 colon) [µM],TGI (NCI-H460 lung) [µM],TGI (UACC-62 melanoma) [µM],TGI (MOLT-4 leukemia) [µM],TGI (U251 CNS) [µM],TGI (CCRF-CEM leukemia) [µM],TGI (SR leukemia) [µM],TGI (SF-539 CNS) [µM],TGI (MDA-N) [µM],TGI (SNB-75 CNS) [µM],TGI (HL-60(TB) leukemia) [µM],TGI (SK-MEL-5 melanoma) [µM],TGI (DU-145 prostate) [µM]
C(=NCCCN1CCN(CCCN=Cc2cccc3ccccc23)CC1)c1cccc2ccccc12,> 100,> 100,> 100,78.2,> 100,> 100,> 100,> 100,> 100,> 100,> 100,> 100,> 100,> 100,> 100,> 100,,,
C/C=C1\CNC1C(=O)O (centres undefined),> 100,> 100,,,> 100,> 100,> 100,> 100,> 100,,,> 100,,> 100,> 100,,> 100,> 100,
CC(C)[Si](OC1=C(c2ccccc2)C(NC(=O)/C=C/c2ccc([N+](=O)[O-])cc2)CCC1)(C(C)C)C(C)C (centres undefined),,> 100,> 100,> 100,> 100,> 100,> 100,> 100,> 100,> 100,> 100,> 100,> 100,> 100,,> 100,> 100,> 100,> 100
CC(=O)O[C@H]1CC[C@@]2(C)C(=C[C@H](c3ccc(O)cc3)[C@H]3[C@@H]4CC[C@H](OC(C)=O)[C@@]4(C)CC[C@@H]32)C1,69,76.4,40.5,51.1,,,36.2,40.6,23,45.3,48,56.1,,43.9,,51.7,58,23.8,48.8
Cc1sc(Nc2ccccc2[N+](=O)[O-])c(C#N)c1C,> 100,> 100,> 100,57.1,,,> 100,> 100,> 100,> 100,62.6,> 100,> 100,68.3,> 100,39.9,,,> 100
O=c1c2cc(-c3ccccc3)cnc2sn1-c1ccc(Oc2ccccc2)cc1,89.8,> 100,> 100,44.6,> 100,,> 100,> 100,> 100,> 100,78.1,82.9,> 100,> 100,> 100,75.9,> 100,,> 100
O=Nc1sc(=N\O)/c(=N/O)sc1NO,> 100,> 100,> 100,> 100,> 100,,> 100,> 100,> 100,> 100,> 100,> 100,> 100,> 100,> 100,> 100,> 100,> 100,> 100
COc1ccc2c(c1)CCN1CCCc3ccc(OC)cc3C21 (centres undefined),> 100,> 100,> 100,> 100,> 100,> 100,> 100,,> 100,> 100,> 100,> 100,> 100,> 100,,83.2,,> 100,> 100
CNC(=O)CNC(=O)C(NC(=O)CNC(=O)C1CCCN1C(=O)C(C)NC(=O)C(NC(C)=O)C(C)C)C(C)C (centres undefined) (Ac-VAPGVG-NHMe; configuration not given here),> 100,> 100,,,> 100,,> 100,> 100,> 100,> 100,> 100,> 100,> 100,> 100,> 100,,> 100,,> 100
CCOC(=O)N/N=C(\Cc1ccc([N+](=O)[O-])cc1)OCC,> 100,> 100,,> 100,> 100,,> 100,,> 100,> 100,> 100,> 100,> 100,> 100,> 100,> 100,,> 100,> 100
COc1cc2c(cc1OC)-c1c(oc3cc(OC4OC(CO)C(O)C(O)C4O)c(OC)cc3c1=O)C(O)O2 (centres undefined),> 100,> 100,> 100,> 100,> 100,> 100,> 100,> 100,> 100,,> 100,> 100,,> 100,,> 100,> 100,> 100,> 100
CS/C(=N\S(=O)(=O)c1cc(C)c(Cl)cc1Cl)NNc1cnc2ccccc2n1,> 100,> 100,> 100,> 100,> 100,> 100,> 100,> 100,> 100,> 100,> 100,> 100,,> 100,,> 100,> 100,> 100,> 100
CCOC1(OCC)N=C(N)C2(C#N)C3(C(=O)N(C(C)C)N=C3C)C12C#N (centres undefined),> 100,> 100,> 100,> 100,> 100,,> 100,> 100,> 100,> 100,> 100,> 100,> 100,> 100,,> 100,> 100,,> 100
Cc1cc(O)c(C=NC(=S)c2ccccc2)c(=O)o1,> 100,> 100,> 100,,> 100,,> 100,> 100,> 100,> 100,> 100,,,> 100,> 100,> 100,,> 100,> 100
CCOC(=O)c1c(-c2ccccc2)nc2c(OC)nccn12,> 100,> 100,> 100,80.9,> 100,> 100,> 100,> 100,> 100,> 100,> 100,> 100,> 100,> 100,,> 100,> 100,> 100,> 100
Cc1c(C(=O)/C=C/c2c(Cl)cccc2Cl)c(=O)n(-c2ccccc2)n1C,> 100,> 100,39.1,20.4,> 100,,65.8,82.7,> 100,> 100,2.98,56.6,,,,,,,
COC(=O)CCc1ccc2c(c1)CC1(Cc3ccccc3C1)C2,> 100,> 100,> 100,> 100,> 100,> 100,> 100,,> 100,> 100,> 100,> 100,,> 100,> 100,> 100,> 100,> 100,
COCCN(CCOC)C(=O)COc1c2cc(C(C)(C)C)cc1Cc1cc(C(C)(C)C)cc(c1OCC(=O)N(CCOC)CCOC)Cc1cc(C(C)(C)C)cc(c1OCC(=O)N(CCOC)CCOC)Cc1cc(C(C)(C)C)cc(c1OCC(=O)N(CCOC)CCOC)Cc1cc(C(C)(C)C)cc(c1OCC(=O)N(CCOC)CCOC)C2,11.4,,11,4.03,10.1,,18.3,5.86,3.53,,2.05,,3.63,5.9,12.1,0.576,,2.78,11.1
CN(C)C1(N(C)C)Oc2c(c(=O)n(C)c(=O)n2C)C(c2ccccc2Br)C1(F)F (centres undefined),,> 100,> 100,> 100,,,> 100,> 100,> 100,> 100,> 100,> 100,,> 100,,> 100,,> 100,> 100
CC(=O)NC1C(OC2C(CO)OC(OCC3OC(n4ccc(N)nc4=O)C(O)C3O)C(NC(C)=O)C2O)OC(CO)C(O)C1O (centres undefined),> 100,> 100,> 100,> 100,> 100,> 100,> 100,> 100,> 100,> 100,> 100,> 100,> 100,> 100,,> 100,> 100,> 100,> 100
CSc1nc2c(c(=O)[nH]1)N=C(c1ccc(Cl)cc1)CC(c1ccccc1)N2 (centres undefined),30,26.8,58.7,34.4,29.5,,28.8,,,61.8,39.3,37.4,> 100,33.3,31.4,24.7,39.6,26.1,42.1
